What follows are compounds tested against T1, hMAGL (Homo sapiens, UniProt Q99685) (assay: 2-AG assay: MAGL inhibition, hydrolysis of 2-arachidonoylglycerol to arachidonic acid followed by mass spectrometry).
T1 sequence (Q99685 1-303): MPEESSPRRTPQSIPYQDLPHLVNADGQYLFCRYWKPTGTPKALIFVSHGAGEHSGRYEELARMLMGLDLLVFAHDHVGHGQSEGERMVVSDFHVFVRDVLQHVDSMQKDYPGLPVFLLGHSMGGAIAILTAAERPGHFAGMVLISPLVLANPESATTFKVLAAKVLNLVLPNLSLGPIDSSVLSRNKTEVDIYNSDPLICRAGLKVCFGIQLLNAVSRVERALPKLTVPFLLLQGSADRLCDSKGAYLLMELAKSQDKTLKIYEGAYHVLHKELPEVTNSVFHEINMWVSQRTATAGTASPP
Format: biochemical
Procedure, shortened: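 Read-out is LC-MS/MS of arachidonic acid released from 2-arachidonoylglycerol (8 μM final), normalised to d8-arachidonic acid internal standard after acetonitrile quench. Enzyme […] and compound were pre-mixed 15 min, then reacted 30 min, both at RT, in Tris/EDTA buffer with 0.01% Tween-20 and 2.5% DMSO.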

Structure (SMILES)	IC50 [nM]
O=C(N1CC2(CC(Cn3cnc(C(F)(F)F)n3)C2)C1)N1CC2(CC(n3cnc(C4CC4)n3)C2)C1 [Example 127, [6-(3-cyclopropyl-1,2,4-triazol-1-yl)-2-azaspiro[3.3]heptan-2-yl]-[6-[[3-(trifluoromethyl)-1,2,4-triazol-1-yl]methyl]-2-azaspiro[3.3]heptan-2-yl]methanone]	1.06
O=C(N1CC2(CC(Cc3n[nH]c(C4CC4)n3)C2)C1)N1CC2(CC(n3cnc(C(F)(F)F)n3)C2)C1 [Example 303, [6-[(5-cyclopropyl-1H-1,2,4-triazol-3-yl)methyl]-2-azaspiro[3.3]heptan-2-yl]-[6-[3-(trifluoromethyl)-1,2,4-triazol-1-yl]-2-azaspiro[3.3]heptan-2-yl]methanone]	9.41
O=C(N1CC2(CC(Cn3cnc(C(F)(F)F)n3)C2)C1)N1CC2(CC(n3cnc(C4(O)CC4)n3)C2)C1 [Example 128, [6-[3-(1-hydroxycyclopropyl)-1,2,4-triazol-1-yl]-2-azaspiro[3.3]heptan-2-yl]-[6-[[3-(trifluoromethyl)-1,2,4-triazol-1-yl]methyl]-2-azaspiro[3.3]heptan-2-yl]methanone]	9.98
O=C(N1CC2(CC(n3cnc(C4(O)CC4)n3)C2)C1)N1CC2(CN(Cc3cc(C(F)(F)F)ns3)C2)C1 [Example 152, [6-[3-(1-hydroxycyclopropyl)-1,2,4-triazol-1-yl]-2-azaspiro[3.3]heptan-2-yl]-[6-[[3-(trifluoromethyl)isothiazol-5-yl]methyl]-2,6-diazaspiro[3.3]heptan-2-yl]methanone]	161
O=C(N1CC2(CCN(Cc3nc(C(F)(F)F)cs3)CC2)C1)N1CC2(CC(n3cnc(C4CC4)n3)C2)C1 [Example 177, [6-(3-cyclopropyl-1,2,4-triazol-1-yl)-2-azaspiro[3.3]heptan-2-yl]-[7-[[4-(trifluoromethyl)thiazol-2-yl]methyl]-2,7-diazaspiro[3.5]nonan-2-yl]methanone]	9.83
O=C(N1CC2(CC(Cc3noc(C(F)(F)F)n3)C2)C1)N1CC2(CC(n3cnc(C4(O)CC4)n3)C2)C1 [Example 105]	14.1
O=C(N1CC2(CC(n3cnc(C(F)F)n3)C2)C1)N1CC2(CN(Cc3cn[nH]c3C(F)(F)F)C2)C1 [Example 310, [6-[3-(difluoromethyl)-1,2,4-triazol-1-yl]-2-azaspiro[3.3]heptan-2-yl]-[6-[[5-(trifluoromethyl)-1H-pyrazol-4-yl]methyl]-2,6-diazaspiro[3.3]heptan-2-yl]methanone]	344
O=C(N1CC2(CC(n3cnc(C4CC4)n3)C2)C1)N1CC2(CN(Cc3nnn(CC(F)(F)F)n3)C2)C1 [Example 194, [6-(3-cyclopropyl-1,2,4-triazol-1-yl)-2-azaspiro[3.3]heptan-2-yl]-[6-[[2-(2,2,2-trifluoroethyl)tetrazol-5-yl]methyl]-2,6-diazaspiro[3.3]heptan-2-yl]methanone]	149
O=C(N1CC2(CC(Cc3cc(C(F)F)n[nH]3)C2)C1)N1CC2(CC(n3cnc(C(F)F)n3)C2)C1 [Example 334, [6-[[3-(difluoromethyl)-1H-pyrazol-5-yl]methyl]-2-azaspiro[3.3]heptan-2-yl]-[6-[3-(difluoromethyl)-1,2,4-triazol-1-yl]-2-azaspiro[3.3]heptan-2-yl]methanone]	9.74
Cc1nn(CC(F)(F)F)cc1CN1CC2(C1)CN(C(=O)N1CC3(CC(n4cnc(C5(O)CC5)n4)C3)C1)C2 [Example 111, [6-[3-(1-hydroxycyclopropyl)-1,2,4-triazol-1-yl]-2-azaspiro[3.3]heptan-2-yl]-[6-[[3-methyl-1-(2,2,2-trifluoroethyl)pyrazol-4-yl]methyl]-2,6-diazaspiro[3.3]heptan-2-yl]methanone]	3900
O=C(N1CC2(CC(Cc3cnn(C(F)(F)F)c3)C2)C1)N1CC2(CC(n3cnc(C4(O)CC4)n3)C2)C1 [Example 14]	6.35
Cn1nc(CC2CC3(C2)CN(C(=O)N2CC4(CC(n5cnc(C6(O)CC6)n5)C4)C2)C3)cc1C(F)(F)F [Example 2, [6-[3-(1-hydroxycyclopropyl)-1,2,4-triazol-1-yl]-2-azaspiro[3.3]heptan-2-yl]-[6-[[1-methyl-5-(trifluoromethyl)pyrazol-3-yl]methyl]-2-azaspiro[3.3]heptan-2-yl]methanone]	0.61
O=C(N1CC2(CC(n3cnc(C(F)(F)F)n3)C2)C1)N1CC2(CN(Cc3cc(C(F)(F)F)no3)C2)C1 [Example 183, [6-[[3-(trifluoromethyl)isoxazol-5-yl]methyl]-2,6-diazaspiro[3.3]heptan-2-yl]-[6-[3-(trifluoromethyl)-1,2,4-triazol-1-yl]-2-azaspiro[3.3]heptan-2-yl]methanone]	28.4
Cn1ncc(P(C)(C)=O)c1CN1CC2(C1)CN(C(=O)N1CC3(CC(n4cnc(C(F)(F)F)n4)C3)C1)C2 [Example 227, [6-[(4-dimethylphosphoryl-2-methyl-pyrazol-3-yl)methyl]-2,6-diazaspiro[3.3]heptan-2-yl]-[6-[3-(trifluoromethyl)-1,2,4-triazol-1-yl]-2-azaspiro[3.3]heptan-2-yl]methanone]	1380

More lines, now with the values ahead:

IC50 [nM]	Structure (SMILES)
5.1	CC(C)(C)c1ncc(CN2CC3(C2)CN(C(=O)N2CC4(CC(n5cnc(C6CC6)n5)C4)C2)C3)s1 [Example 57, [6-[(2-tert-butylthiazol-5-yl)methyl]-2,6-diazaspiro[3.3]heptan-2-yl]-[6-(3-cyclopropyl-1,2,4-triazol-1-yl)-2-azaspiro[3.3]heptan-2-yl]methanone]
12	O=C(N1CC2(CC(n3cnc(C(F)(F)F)n3)C2)C1)N1CC2(CN(Cc3cc(C4CCC4)[nH]n3)C2)C1 [Example 273, [6-[(5-cyclobutyl-1H-pyrazol-3-yl)methyl]-2,6-diazaspiro[3.3]heptan-2-yl]-[6-[3-(trifluoromethyl)-1,2,4-triazol-1-yl]-2-azaspiro[3.3]heptan-2-yl]methanone]
2.86	O=C(N1CC2(CCN(Cc3ncc(C(F)F)s3)CC2)C1)N1CC2(CC(n3cnc(C4CC4)n3)C2)C1 [Example 32]
9.22	O=C(N1CC2(CC(n3cnc(C4CC4)n3)C2)C1)N1CC2(CN(Cc3cnc(C(F)F)s3)C2)C1 [Example 279, [6-(3-cyclopropyl-1,2,4-triazol-1-yl)-2-azaspiro[3.3]heptan-2-yl]-[6-[[2-(difluoromethyl)thiazol-5-yl]methyl]-2,6-diazaspiro[3.3]heptan-2-yl]methanone]
3.85	O=C(N1CC2(CC(c3cc(C4CC4)n[nH]3)C2)C1)N1CC2(CN(Cc3nc(C4CC4)ns3)C2)C1 [Example 42, [6-(3-cyclopropyl-1H-pyrazol-5-yl)-2-azaspiro[3.3]heptan-2-yl]-[6-[(3-cyclopropyl-1,2,4-thiadiazol-5-yl)methyl]-2,6-diazaspiro[3.3]heptan-2-yl]methanone]
28.5	O=C(N1CC2(CC(n3cnc(C4CC4)n3)C2)C1)N1CC2(CN(Cc3coc(C(F)(F)F)n3)C2)C1 [Example 214, [6-(3-cyclopropyl-1,2,4-triazol-1-yl)-2-azaspiro[3.3]heptan-2-yl]-[6-[[2-(trifluoromethyl)oxazol-4-yl]methyl]-2,6-diazaspiro[3.3]heptan-2-yl]methanone]

— patent publication US20260374756A1, “HETEROCYCLIC COMPOUNDS AS INHIBITORS OF MONOACYLGLYCEROL LIPASE (MAGL)” (Hoffmann-La Roche Inc., priority 2022, published 2026)
